The text below walks through data of ChEMBL document CHEMBL1152247, “Identification of novel inhibitors of extracellular signal-regulated kinase 2 based on the structure-based virtual screening” (Bioorg Med Chem Lett, 2008).

The structures appear in SMILES notation. pIC50: −log10 of the molar value.

In test [1] the target is T1, Mitogen-activated protein kinase 1 (Homo sapiens, UniProt P28482). The test can be described thus: Inhibition of recombinant ERK2.
Test [2] has as its target T1, Mitogen-activated protein kinase 1. The test can be described thus: Inhibition of recombinant ERK2 at 100 uM.
The target of test [3] is Mitogen-activated protein kinase 14 (Homo sapiens) (UniProt Q16539). The test can be described thus: Inhibition of p38-alpha at 100 uM.
Sequence of Mitogen-activated protein kinase 14 (Homo sapiens) (Q16539 whole entry): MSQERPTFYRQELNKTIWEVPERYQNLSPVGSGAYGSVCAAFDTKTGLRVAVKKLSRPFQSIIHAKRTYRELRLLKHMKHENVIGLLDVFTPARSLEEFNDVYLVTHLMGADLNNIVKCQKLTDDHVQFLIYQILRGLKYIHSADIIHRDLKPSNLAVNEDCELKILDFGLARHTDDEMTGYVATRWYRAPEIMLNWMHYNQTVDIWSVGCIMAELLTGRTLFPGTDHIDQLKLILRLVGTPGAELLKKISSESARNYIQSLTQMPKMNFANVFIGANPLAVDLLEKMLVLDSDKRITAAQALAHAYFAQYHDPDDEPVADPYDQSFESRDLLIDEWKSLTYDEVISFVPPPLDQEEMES

T1 sequence (P28482 whole entry): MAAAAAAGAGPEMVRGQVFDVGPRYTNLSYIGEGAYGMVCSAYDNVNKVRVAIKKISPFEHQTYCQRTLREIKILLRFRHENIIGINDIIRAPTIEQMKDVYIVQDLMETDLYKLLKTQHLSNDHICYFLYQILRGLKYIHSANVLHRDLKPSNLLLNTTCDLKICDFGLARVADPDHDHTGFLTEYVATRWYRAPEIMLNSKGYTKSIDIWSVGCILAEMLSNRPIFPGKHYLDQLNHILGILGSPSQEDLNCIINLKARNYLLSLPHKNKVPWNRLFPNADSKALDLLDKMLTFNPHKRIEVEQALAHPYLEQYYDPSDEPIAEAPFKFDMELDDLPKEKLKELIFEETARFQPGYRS

On to `O=C(Nc1nc(NC(=O)c2ccco2)n(-c2ccccc2)n1)c1ccccc1`, for which the pIC50 (usually the negative decadic logarithm of the IC50, by convention in mol/L) in test [1] was 4.74.

Take `O=C(/C=C/c1ccccc1)Nc1nc(NC(=O)c2ccccc2)nn1-c1ccccc1`: in test [1], the pIC50 was 4.59.

Consider `O=C1/C(=C/c2ccc(O)cc2)SC(=S)N1Cc1ccccc1`, for which the inhibition (in general, the share of the control response that was lost under treatment) in test [2] amounted to 92.7%; in test [3], 16.7%. Besides, the pIC50 in test [1] is 5.26.

Take `COc1cc(/C=C2\SC(=S)N(Cc3ccccc3)C2=O)ccc1O`: the pIC50 in test [1] was 4.84.

Take `Cc1ccc(COc2ccc(-c3n[nH]cc3-c3ccccc3)c(O)c2)cc1`: the inhibition in test [2] was determined as 87.9%; in test [3], 12.3%. In addition, the pIC50 in test [1] was 4.77.

Turning to `O=C(Nc1nc(NC(=O)c2ccccc2)n(-c2ccccc2)n1)c1ccccc1`, the figures for the inhibition in test [2] and in test [3] were 93.1% and 24.5%, respectively. The pIC50 in test [1] was 5.08.

`COc1ccccc1-c1c[nH]nc1-c1ccc(OCc2ccccc2F)cc1O`: in test [1], the pIC50 is 4.56.

Turning to `O=C1/C(=C/C=C/c2ccccc2)SC(=S)N1Cc1ccc2c(c1)OCO2`, the pIC50 in test [1] was 4.63.
